{"source": "patent US7323620B2", "about": "“Activation of equine oocytes” (Idaho Research Foundation, Inc., priority 2002, dated 2008)", "key": {"Oocytes from mules": {"tested_on": "Oocytes from mules", "experiment": "Additional data in mules: calcium concentration in activation medium and peripheral media, pregnancies after nuclear transfer", "type": "in vivo, mule", "text": "The procedures of the above examples were repeated in order to compare results obtained with different concentrations of calcium in the activation medium and in peripheral media, that is media other than the activation medium. Oocytes from mules were placed into one of four groups as follows: In Groups 1 to 3, media was as described above in Examples 1 to 5, except for calcium concentration, which is as described below. In Group 4, media was HECM media.\nTissue Culture Medium (TCM)—199 with Earl's salts • 1.4 mM CaCl2 (1×) • 10% Fetal Bovine Serum (FBS) • 0.05 units FSH • 0.05 units LH • 100 units penicillin • 100 micrograms streptomycin Manipulation Medium:\nPB1 (Whittingham, D G, J. Reprod. Fert., 37(1):159-162 (1974) • Dulbecco's phosphate buffered saline • 1.4 mM CaCl2 (1×) • 0.5 mM MgCl2 • 0.33 mM Na-pyruvate • 5.56 mM Glucose • 3 mg/ml Bovine Serum Albumin (BSA)—fraction 5 • 100 units penicillin • 10 micrograms streptomycin Transfer Medium\nPB1 (as in Manipulation Medium) except 0.7 mM CaCl2 (1×)\n(§1) Holding/Activation/Culture Medium for Group 4 in Example 9 and in horses in Example 10 • HECM (Ball et al., Amer. J. Vet. Res., 54(7):1139-44 (1993) • Ham's F-12+Dulbecco's […] (DMEM)—(50:50, v:v) • 0.71 mM CaCl2 (1×) • 29 mM NaHCO3 • 5 micrograms/ml insulin • 5 micrograms/ml transferrin • 5 ng/ml Na-selenite • 10 ng/ml EGF • 50 IU penicillin • 50 micrograms streptomycin"}, "equine oocytes": {"tested_on": "equine oocytes", "experiment": "Nuclear transfer with activation of oocytes in calcium chloride/ionomycin activation medium, embryo transfer and pregnancy detection by transrectal ultrasonography (cloned mule embryos)", "type": "in vivo, mule (donor cells); recipient mare Equus caballus", "protocol": "A primary culture of fibroblast cells was established from a 45-day mule fetus recovered from a domestic horse mare using transcervical uterine lavage. Culture medium was Glasgow MEM BHK-21 supplemented with 10% FBS, 100 units/ml penicillin, and 100 μg/ml streptomycin. Incubation was performed at 38.5° C. in a humidified atmosphere of 5% CO2 in air. Prior to the nuclear transfer procedure, the fibroblast cells were serum “starved” for 5 to 10 days by placing them into medium with 0.5% FBS.\nMares that were used as oocyte donors and as cloned-embryo recipients were of mixed breeding, 3 to 12 years old, and weighed 300 to 500 kg. The reproductive tracts of the mares were monitored by transrectal palpation and ultrasonography to assess follicular activity, ovulation, and the presence and degree of endometrial edema.\nOocytes were collected by one of three methods.\n1. Recent (≦12 hours) post-ovulatory oocytes (n=12) were collected by surgically excising the oviduct ipsilateral to ovulation and then flushing the oviduct in a retrograde manner with modified DPBS.\n2. Pre-ovulatory oocytes (n=3) were collected by surgically excising ovaries containing a pre-ovulatory follicle (≧35 mm) approximately 30 hours after administration of 2500 IU hCG and then manually aspirating the follicle.\n3. Pre-ovulatory oocytes (n=180) were collected using transvaginal aspiration (TVA) of pre-ovulatory follicles approximately 24 hours after administration of 2500 IU hCG.\nOocytes collected post-ovulation were incubated for up to 6 hours in maturation medium (M-199) containing 10% FBS, 0.05 units/ml pFSH, 0.05 units/ml pLH, 10 units/ml penicillin and 10 μg/ml streptomycin. Oocytes collected pre-ovulation were incubated in maturation medium for approximately 12 hours.\nCumulus-free metaphase II oocytes and starved donor cells were placed in a manipulation drop of TL HEPES containing 7.5 μg of cytochalasin B. The first polar body and metaphase plate of the oocytes were drawn into a 25-28 ID enucleation pipette. The same pipette was used to aspirate a disaggregated donor cell nucleus and place it in the perivitelline space of an oocyte to obtain an NT couple. Fusion of NT couples was induced by a single 15 μsec, 2.2 kv/cm DC pulse in a 3.5 mm fusion chamber. Fusion medium was […] D-mannitol containing 0.5 mM HEPES and 0.05% fatty acid-free BSA. Fused NT couples were activated by placing them in an activation medium containing calcium chloride and ionomycin for 8 minutes. Three different concentrations of calcium chloride were used in the activation medium: 2 mM (n=133 oocytes), 6 mM (n=40 oocytes), and 20 mM (n=22 oocytes).\nImmediately following nuclear transfer and activation, the oocytes, hereafter referred to as embryos, were surgically transferred to the oviduct of a recipient mare (Equus caballus) that had ovulated within 24 hours prior to the transfer. One to nine embryos were transferred to each mare. Pregnancy examinations on the recipient mare were performed using transrectal ultrasonography beginning on Day 12 post-transfer."}, "horse oocytes": {"tested_on": "horse oocytes", "experiment": "Data in horses: protocol of Group 4 of Example 9 repeated with horse oocytes", "type": "in vivo", "protocol": "The protocol of Group 4 of Example 9 was repeated with […] horse oocytes. Of these, pregnancy was detected at two weeks in 6 mares, […]. Of these 6, 3 pregnancies were detected at 30 days and 1 was detected at 45 days.\nas §1"}, "[1]": {"conditions": "Group 4 (6x Ca activation, 3x peripheral media)"}, "[2]": {"conditions": "2 mM calcium in activation medium"}, "[3]": {"conditions": "6 mM calcium in activation medium"}, "[4]": {"conditions": "20 mM calcium in activation medium"}, "[5]": {"conditions": "Group 4 protocol (6x Ca activation, 3x peripheral media), 59 horse oocytes"}, "[6]": {"conditions": "Group 4 protocol, of 6 two-week pregnancies"}}}
{"smiles": "[Ca+2].[Cl-].[Cl-]", "note": "[calcium chloride]", "values": [{"measurement": "Two-week pregnancies detectable at 30 days", "setting": "Oocytes from mules; Group 1 (1x Ca all media), of 2 two-week pregnancies", "result": "neither"}, {"measurement": "PREGNANCIES (2 weeks)", "setting": "Oocytes from mules; Group 1: 1x Ca (about 2 mM) all media", "result": "(1.7%)"}, {"measurement": "PREGNANCIES (2 weeks), number", "setting": "Oocytes from mules; Group 1: 1x Ca (about 2 mM) all media, 115 oocytes", "result": 2}, {"measurement": "Two-week pregnancies detectable at 30 days", "setting": "Oocytes from mules; Group 2 (3x Ca activation medium), of 3 two-week pregnancies", "result": 2}, {"measurement": "PREGNANCIES (2 weeks)", "setting": "Oocytes from mules; Group 2: 3x Ca (about 6 mM) in activation media, 1x Ca all other media", "result": "(7.5%)"}, {"measurement": "PREGNANCIES (2 weeks), number", "setting": "Oocytes from mules; Group 2: 3x Ca (about 6 mM) in activation media, 1x Ca all other media, 40 oocytes", "result": 3}, {"measurement": "PREGNANCIES (2 weeks)", "setting": "Oocytes from mules; Group 3: 10x Ca (about 20 mM) in activation media, 1x Ca all other media", "result": "(9.09%)"}, {"measurement": "PREGNANCIES (2 weeks), number", "setting": "Oocytes from mules; Group 3: 10x Ca (about 20 mM) in activation media, 1x Ca all other media, 22 oocytes", "result": 2}, {"measurement": "Pregnancies detectable at 45 days", "setting": "Oocytes from mules; [1]", "result": "Five"}, {"measurement": "Pregnancies detectable at 120 days", "setting": "Oocytes from mules; [1]", "result": 3}, {"measurement": "Two-week pregnancies detectable at 30 days", "setting": "Oocytes from mules; Group 4 (6x Ca activation, 3x peripheral media), of 12 two-week pregnancies", "result": 9}, {"measurement": "PREGNANCIES (2 weeks)", "setting": "Oocytes from mules; Group 4: 6x Ca (about 12 mM) in activation media, 3x Ca all other media, HECM media", "result": "(14.4%)"}, {"measurement": "PREGNANCIES (2 weeks), number", "setting": "Oocytes from mules; Group 4: 6x Ca (about 12 mM) in activation media, 3x Ca all other media, HECM media, 132 oocytes", "result": 19}, {"measurement": "Pregnancy Rate", "setting": "equine oocytes; [2]", "result": "(1.5%)"}, {"measurement": "Pregnancy Rate (pregnancies/oocytes)", "setting": "equine oocytes; [2]", "result": "2/133"}, {"measurement": "Pregnancy Rate", "setting": "equine oocytes; [3]", "result": "(7.5%)"}, {"measurement": "Pregnancy Rate (pregnancies/oocytes)", "setting": "equine oocytes; [3]", "result": "3/40"}, {"measurement": "Ultrasonography of cloned mule conceptus", "setting": "equine oocytes; 6 mM calcium in activation medium, Day 32 of gestation", "result": "an embryonic heart was evident"}, {"measurement": "Pregnancy Rate", "setting": "equine oocytes; [4]", "result": "(9.1%)"}, {"measurement": "Pregnancy Rate (pregnancies/oocytes)", "setting": "equine oocytes; [4]", "result": "2/22"}, {"measurement": "Pregnancies, higher versus lower calcium", "setting": "equine oocytes; 6 and 20 mM combined compared to 2 mM in activation medium, P<0.05", "result": "more pregnancies"}, {"measurement": "Pregnancy detected at two weeks", "setting": "horse oocytes; [5]", "result": 4.4, "unit": "%"}, {"measurement": "Pregnancy detected at two weeks, number of mares", "setting": "horse oocytes; [5]", "result": 6}, {"measurement": "Pregnancies detected at 30 days", "setting": "horse oocytes; [6]", "result": 3}, {"measurement": "Pregnancies detected at 45 days", "setting": "horse oocytes; [6]", "result": 1}]}
